Source: patent publication US12516060B2, “Solid freebase forms of 5-chloro-2-(4-((2-hydroxy-2-methylpropyl)amino)pyrido[3,4-d]pyridazin-1-yl)phenol for inhibiting NLRP3 and uses thereof” (Ventus Therapeutics U.S., Inc., priority 2023, dated 2026)
Entries after “also recorded” stand apart in the source; their conditions may differ.

Key:
Type in all cases: physicochemical
[1] = Dynamic Vapor Sorption (DVS)
Protocol: DVS was performed using TA Instruments Q5000SA. The sample (5-15 mg) was loaded into a metallic quartz sample pan, suspended from a microbalance, and exposed to a humidified stream of nitrogen gas. Weight changes were relative to a matching empty reference pan opposite the sample, suspended from the microbalance. The sample was held for a minimum of 10 min at each level and only progressed to the next humidity level if there was <0.002% change in weight between measurements (interval: 5 s) or 45 min had elapsed (for 5-65% RH) or 2 h had elapsed (for 80 and 95% RH). Mass change by DVS is related to hygroscopicity.

[2] = Second set of competitive slurry experiments (Form V vs Form I and Form II)
Protocol: A second set of competitive slurry experiments was set up in three solvent systems and two temperatures to assess the relative stability of Form V freebase with respect to Form I freebase and Form II freebase. […] In all samples, the input seed patterns were observed less than 1 min after addition. […] After 7 days, the quantity of Form II freebase remaining in the RT acetonitrile sample was greatly diminished, though Form II freebase was still present in trace quantities.

[3] = Solid form stability studies, 75% RH at 40° C. for one week (XRPD and HPLC)
Protocol: Solid form stability studies were performed on Form I-V freebase forms by weighing approximately 10-15 mg of the crystalline material into 4 mL vials and covering with a lab grade task wipe (Kimwipe). These vials were placed inside a stability chamber set at 75%±5% relative humidity (RH) at 40° C.±2° C., where they were left for one week (7 full days). The retrieved material was then analyzed by XRPD and HPLC. In each case, the initial material and tested material were identical by XRPD, with the exception of Form I freebase, where an extra peak at 5.8 °2θ in the initial material was absent after the stability test. HPLC purities of the tested material were essentially unchanged from those of the initial material.

DVS mass change 5-95% RH (wt. %) ([1]; 5-95% RH): 0.20 wt. %
water uptake, weight gain between 5-95% relative humidity (RH) ([1]; DVS, 5-95% RH): about 0.20%
hygroscopicity ([1]; DVS, all adsorbed water lost during the drying cycle): slightly, hygroscopic
relative hygroscopicity among the Forms studied by DVS ([1]; Forms I-V): least hygroscopic
XRPD pre- and post-DVS ([1]; form stability after DVS cycle): remained unchanged
XRPD (tested material) ([3]; 75% ± 5% RH at 40° C. ± 2° C. for 1 week): Form V
Purity % a/a (tested material) ([3]; HPLC, after 75% ± 5% RH at 40° C. ± 2° C. for 1 week): 99.60 % a/a
Purity % a/a (input material) ([3]; HPLC, before stability test): 99.46 % a/a
solid-form and chemical stability at elevated RH ([3]; one-week at 75% RH and 40° C.): no form change or purity decrease
SMILES: CC(C)(O)CNc1nnc(-c2ccc(Cl)cc2O)c2ccncc12 [Form V freebase, 5-chloro-2-(4-((2-hydroxy-2-methylpropyl)amino)pyrido[3,4-d]pyridazin-1-yl)phenol]
form observed by XRPD after 3 days ([2]; acetonitrile, MeOH, acetone:water (7:3 vol.), RT and 50° C., 3 days): the sole form observed in all experiments, except in acetonitrile at RT
relative (thermodynamic) stability vs Form I and Form II ([2]; second set of slurries, various solvent systems): favored over both Form I and II freebase; also recorded: most thermodynamically stable form studied
